Key:
[1] = test system: BT474 tumors; assay: BT474 vs. Lapatinib and Docetaxel Combination (mice with BT474 tumors); type: in vivo
Procedure: Mice with BT474 tumors were administered lapatinib alone (200 and 100 mg/kg; SID×21 Days, or 2 days and 1 day before docetaxel) and in combination with docetaxel (25 and 50 mg/kg IP, once weekly×3 weeks).
In the first experiment there were no deaths, and in the second experiment there was one death in a group of eight mice receiving docetaxel (25 mg/kg) and lapatinib (200 mg/kg×21 days). All surviving mice rapidly regained body weight when dosing was completed. The treatment groups and results follow.

[2] = test system: HER-2/neu transfected MCF-7 cell line; assay: Cell growth, MTT tetrazolium dye assay; type: cell-based, human; settings: 1-10 uM
Procedure: (§1) The effect of a combination of lapatanib with a Bcl-2 inhibitor (HA14-1) on the growth of MCF-7 human breast cancer cells, a HER-2/neu transfected MCF-7 cell line and a tamoxifen (TAM) resistant MCF-7 cell line was examined. Cell growth was determined using the MTT tetrazolium dye assay. Cells were dosed with Lapatinib and HA14-1 as monotherapies.

[3] = test system: tamoxifen (TAM) resistant MCF-7 cell line; assay: Cell growth, MTT tetrazolium dye assay; type: cell-based, human; settings: 1-10 uM
Procedure: as §1

[4] = test system: MCF-7 human breast cancer cells; assay: Cell growth, MTT tetrazolium dye assay; type: cell-based; settings: 1-10 uM
Procedure: as §1

[5] = test system: tumor cells overexpressing EGFR or erbB2; settings: Rusnak et al., 2001b; Xia et al., 2002; cited from earlier work
[6] = test system: EGFR and erbB2 kinases; settings: Rusnak et al., 2001b; Xia et al., 2002; cited from earlier work

In the case of CS(=O)(=O)CCNCc1ccc(-c2ccc3ncnc(Nc4ccc(OCc5cccc(F)c5)c(Cl)c4)c3c2)o1.Cc1ccc(S(=O)(=O)O)cc1 [lapatinib, N-{3-Chloro-4-[(3-fluorobenzyl)oxy]phenyl}-6-[5-({[2-(methanesulphonyl)ethyl]amino}methyl)-2-furyl]-4-quinazolinamine ditosylate monhydrate], the “% Inhibition” value ([1]; GW016-100 (100 mg/kg), sid × 21 days) is reported as 79%, the “% Inhibition” value ([1]; GW016-200 (200 mg/kg), sid × 21 Days) is reported as 102% and the “% Inhibition” value ([1]; GW016-200, twice weekly on consecutive days × 3 weeks) is reported as 58%. For the same compound, the “Cell growth inhibition, monotherapy” value [2] was “dose-dependent growth inhibition”, the “Cell growth inhibition, monotherapy” value [3] was “dose-dependent growth inhibition” and the “Cell growth inhibition, monotherapy” value [4] was “dose-dependent growth inhibition”.

With CC(=O)O[C@@]12CO[C@@H]1C[C@H](O)[C@@]1(C)C(=O)[C@H](O)C3=C(C)[C@@H](OC(=O)[C@H](O)[C@@H](NC(=O)OC(C)(C)C)c4ccccc4)C[C@@](O)([C@@H](OC(=O)c4ccccc4)[C@H]21)C3(C)C [docetaxel, (2R,3S)-N-carboxy-3-phenylisoserine,N-tert-butyl ester, 13-ester with 5β-20-epoxy-1,2α,4,7β,10β,13α-hexahydroxytax-11-en-9-one 4-acetate 2-benzoate, trihydrate] the Body weight ([1]; 25 and 50 mg/kg, after 3 weekly doses, both experiments) was “caused weight loss”, the “% Inhibition” value ([1]; Tax-25 (25 mg/kg IP), Days 3, 10, 17) was 77% and the “% Inhibition” value ([1]; Tax-50 (50 mg/kg IP), Days 3, 10, 17) was 98%. The “Efficacy against BT474 tumors (in words)” value ([1]; docetaxel at 50 mg/kg, both experiments) was “highly effective”.

For CS(=O)(=O)CCNCc1ccc(-c2ccc3ncnc(Nc4ccc(OCc5cccc(F)c5)c(Cl)c4)c3c2)o1 [GW572016, N-{3-chloro-4-[(3-fluorobenzyl)oxy]phenyl}-6-[5-({[2-(methanesulphonyl)ethyl]amino}methyl)-2-furyl]-4-quinazolinamine], the “Selectivity of tumor cell inhibition” value [5] is listed as “selectively inhibits tumor cells overexpressing EGFR or erbB2” and the “Kinase inhibition in human xenograft studies” value [6] is listed as “dose-dependent kinase inhibition”.

For CCOC(=O)C1=C(N)Oc2ccc(Br)cc2C1C(C#N)C(=O)OCC (stereo not drawn) [HA14-1, ethyl [2-amino-6-bromo-4-(1-cyano-2-ethoxy-2oxoethyl)]4H-chromene-3-carboxylate, reference compound], the “Cell growth inhibition, monotherapy” value [2] was “dose-dependent growth inhibition”, the “Cell growth inhibition, monotherapy” value [3] was “dose-dependent growth inhibition” and the “Cell growth inhibition, monotherapy” value [4] was “dose-dependent growth inhibition”.
